{"source": "patent US20120277161A1", "about": "“INHIBITION OF MULTIPLE CELL ACTIVATION PATHWAYS” (INTER-K PTY LIMITED, priority 2009, published 2012)", "key": {"[1]": {"tested_on": "ERK1/2 activation in HT29 cells", "test": "Phospho-ERK1/2 ELISA upon serum (FCS) stimulation, HT29 cells", "format": "cell-based, human", "description": "HT29 cells were harvested using 0.5% trypsin EDTA (Invitrogen) and 5000 cells in 200 μL media were plated into each well of a clear NUNC tissue culture treated 96 well plate (NUNC). Cells were seeded in DMEM media (Invitrogen) supplemented with 10% (v/v) heat inactivated foetal calf serum (FCS, Invitrogen), 1% (v/v) L-glutamine (Invitrogen) and 2% (v/v) 1M Hepes buffer solution (Invitrogen). Cells were then incubated overnight at 37° C.\nThe following day, the growth medium was replaced with 100 μL of DMEM supplemented with 1% (v/v) L-glutamine and 2% (v/v) 1M HEPES buffer solution (Invitrogen) (serum free medium, SFM) and plates incubated for a further 24 hours at 37° C.\nThe dendrimers were re-constituted in SFM and the desired concentration was added to the plate in 100 μL SFM to make the total volume of each well 200 μL. The control wells (minus peptide) had only SFM added. The assay plate was then incubated at 37° C. for 4 hours. In studies in which cells were subjected to stimulation by serum, 22 μL FCS (10% v/v final concentration) was added to wells for the final 10 minutes at 37° C. SFM only (22 μL) was added to control wells.\nPhospho-ERK levels were evaluated by ELISA utilising an Active Motif FACE ERK1/2 ELISA kit (Australian Biosearch, WA, Australia) as per the manufacturers instructions. Briefly, media was replaced and cells fixed with 4% formaldehyde in PBS, and after a one hour incubation with antibody blocking buffer (supplied), the primary phospho-ERK antibody was added and the plate incubated overnight at 4° C. Antibody dilution buffer only was added to control test wells containing no primary antibody. The following day, HRP-conjugated secondary antibody was added to all wells for one hour before plates were developed and the absorbance measured at 450 nm using a Labsystems Multiskan EX microplate reader (Labsystems, Thermo Labsystems, UK)."}, "[2]": {"tested_on": "ERK1/2 activity in skin fibroblast cells", "test": "Phospho-ERK1/2 upon FCS stimulation, skin fibroblast cells", "format": "cell-based", "conditions": "compared to HT29 cells, data not shown"}, "[3]": {"tested_on": "HT29 human colon cancer cells", "test": "Cell proliferation (MTT) assay, HT29 cells", "format": "cell-based", "conditions": "MTT, 24 hour incubation period", "description": "6.1 Cell Proliferation (MTT) Assay Single cell suspensions of viable trypsinised cells were seeded into 96-well tissue culture plates at a density of 2×10^3 cells per well in a volume of 100 μl of a suitable culture media supplemented with heat inactivated foetal calf serum (FCS) (e.g., Dulbecco's Modified Eagles Medium (DMEM), with 10% v/v FCS, 1% L-glutamine, 2% (v/v) Hepes, and antibiotics). A set of triplicate wells was prepared for each concentration of the peptide dendrimer being tested. Additional sample wells containing untreated cells or media alone were set up in each treatment plate and processed in parallel as reference controls. A zero-time plate of untreated cells and media-alone wells was simultaneously prepared and an MTT assay carried out on this plate at the time of addition of the kinase inhibitor (i.e., polypeptide or dendrimer) to treatment plates. All plates were cultured for 24 hours before addition of the test dendrimer.\nTo prepare the MTT solution 100 mg of MTT (3-(4,5-dimethylthiazolyl-2)-2,5-diphenyltetrazolium bromide) (Cat #. M-128, Sigma, St Louis Mo.), is mixed with 20 ml of PBS at pH 7.4. The resulting solution is filter sterilized (0.2 μM syringe filter) and stored at 4° C. protected from light until use. MTT substrate is cleaved in growing cells to yield a water insoluble salt. After solubilisation of the salt crystals, a coloured product is produced the measurement of which allows quantitation of the proliferative activity of the cultured cells.\nAppropriate concentrations of the kinase inhibitor were prepared by dilution of freshly prepared sterile 1 mM stock solutions into cell culture media to give a final well volume of 200 μl containing 10% v/v FCS. The zero-plate was processed by addition of MTT at this time. Cell culture was continued for a further 24 or 48 hours before addition of 20 μl of MTT in PBS (5 mg/ml, 0.2 um filter sterilised). The MTT cell proliferation assay measures cell proliferation rate and, in instances where cell viability is compromised, the assay indicates a comparative reduction in cell viability. After a 3 hour incubation in the presence of MTT (5% CO2 in air at 37° C.), plates were centrifuged at 450 g for 5 minutes, supernatant was removed by gentle suction and precipitated tetrazolium salt resuspended into 150 μl DMSO:glycine (0.1M glycine, 0.1M NaCl pH 10.5) (6:1 v/v) solution. Plates were gently vortexed to complete solubilisation of crystalline material and absorbance was read at 550 nm using a microplate reader. Sample data were processed to determine the comparative growth of treated samples relative to untreated controls.\nHT29 cells were cultured for 48 hours in the presence of selected dendrimers and proliferation of the cells was assessed by MTT assay essentially as described in Example 6.1. The results were calculated as percentage proliferation of control cells (not treated with dendrimer)."}}, "note": "“Also recorded” adds a separate entry of the source.", "data": [{"compound": "CC(C)C[C@H](NC(=O)[C@@H]1CCCN1C(=O)[C@H](CC(N)=O)NC(=O)[C@H](CCCCN)NC(=O)[C@H](C)NC(=O)[C@H](CCCCN)NC(=O)[C@H](CO)NC(=O)[C@@H](N)CCCNC(=N)N)C(=O)N[C@@H](Cc1ccc(O)cc1)C(=O)N[C@@H](CCCNC(=N)N)C(=O)NCCCC[C@H](NC(=O)[C@H](CCCNC(=N)N)NC(=O)[C@H](Cc1ccc(O)cc1)NC(=O)[C@H](CC(C)C)NC(=O)[C@@H]1CCCN1C(=O)[C@H](CC(N)=O)NC(=O)[C@H](CCCCN)NC(=O)[C@H](C)NC(=O)[C@H](CCCCN)NC(=O)[C@H](CO)NC(=O)[C@@H](N)CCCNC(=N)N)C(=O)NCCCC[C@H](NC(=O)[C@H](CCCCNC(=O)[C@H](CCCNC(=N)N)NC(=O)[C@H](Cc1ccc(O)cc1)NC(=O)[C@H](CC(C)C)NC(=O)[C@@H]1CCCN1C(=O)[C@H](CC(N)=O)NC(=O)[C@H](CCCCN)NC(=O)[C@H](C)NC(=O)[C@H](CCCCN)NC(=O)[C@H](CO)NC(=O)[C@@H](N)CCCNC(=N)N)NC(=O)[C@H](CCCNC(=N)N)NC(=O)[C@H](Cc1ccc(O)cc1)NC(=O)[C@H](CC(C)C)NC(=O)[C@@H]1CCCN1C(=O)[C@H](CC(N)=O)NC(=O)[C@H](CCCCN)NC(=O)[C@H](C)NC(=O)[C@H](CCCCN)NC(=O)[C@H](CO)NC(=O)[C@@H](N)CCCNC(=N)N)C(=O)NCCCC[C@H](NC(=O)[C@H](CCCCNC(=O)[C@H](CCCCNC(=O)[C@H](CCCNC(=N)N)NC(=O)[C@H](Cc1ccc(O)cc1)NC(=O)[C@H](CC(C)C)NC(=O)[C@@H]1CCCN1C(=O)[C@H](CC(N)=O)NC(=O)[C@H](CCCCN)NC(=O)[C@H](C)NC(=O)[C@H](CCCCN)NC(=O)[C@H](CO)NC(=O)[C@@H](N)CCCNC(=N)N)NC(=O)[C@H](CCCNC(=N)N)NC(=O)[C@H](Cc1ccc(O)cc1)NC(=O)[C@H](CC(C)C)NC(=O)[C@@H]1CCCN1C(=O)[C@H](CC(N)=O)NC(=O)[C@H](CCCCN)NC(=O)[C@H](C)NC(=O)[C@H](CCCCN)NC(=O)[C@H](CO)NC(=O)[C@@H](N)CCCNC(=N)N)NC(=O)[C@H](CCCCNC(=O)[C@H](CCCNC(=N)N)NC(=O)[C@H](Cc1ccc(O)cc1)NC(=O)[C@H](CC(C)C)NC(=O)[C@@H]1CCCN1C(=O)[C@H](CC(N)=O)NC(=O)[C@H](CCCCN)NC(=O)[C@H](C)NC(=O)[C@H](CCCCN)NC(=O)[C@H](CO)NC(=O)[C@@H](N)CCCNC(=N)N)NC(=O)[C@H](CCCNC(=N)N)NC(=O)[C@H](Cc1ccc(O)cc1)NC(=O)[C@H](CC(C)C)NC(=O)[C@@H]1CCCN1C(=O)[C@H](CC(N)=O)NC(=O)[C@H](CCCCN)NC(=O)[C@H](C)NC(=O)[C@H](CCCCN)NC(=O)[C@H](CO)NC(=O)[C@@H](N)CCCNC(=N)N)C(=O)NCCC(N)=O", "note": "[Dend 8-10(4)]", "values": [{"measurement": "greater inhibition of activated phospho-ERK 1/2 than the closest test agent (TAT-G RSKAKNPLYR)", "setting": "[1]; 5 μM, 1 hour, FCS stimulated HT29 cells", "result": "at least 30%"}, {"measurement": "inhibition of activated phospho-ERK1/2", "setting": "[1]; 5 μM, 4 hours, HT29 cells, data not shown", "result": "approx. 95%"}, {"measurement": "ERK1/2 activation (phospho-ERK1/2 levels) upon serum (FCS) stimulation, HT29 cells", "setting": "[1]; exposure to dendrimer for 4 hours prior to FCS", "result": "abolished ERK1/2 activation in a dose-dependent manner; also recorded: significantly reduced"}, {"measurement": "inhibition of ERK1/2 activity upon FCS stimulation, skin fibroblast cells", "setting": "[2]", "result": "much less inhibition"}, {"measurement": "inhibition of proliferation of HT29 colon cancer cells", "setting": "[3]", "result": "substantially more effective at inhibiting cell growth/proliferation"}]}]}
